In patent US20230150974A1 (Foghorn Therapeutics Inc., priority 2020, published 2023):

How the values were obtained:
[1] = biological target: T1, HiBiT-BRM (Homo sapiens, UniProt P51531); experiment: HiBiT-BRM cell-based degradation assay (Nano-Glo HiBiT Lytic Detection); details: HeLa cells expressing HiBiT-BRM, 24 h; for DC50: read-out: BRM HiBit Degradation IC50
T1 construct: expressed in transfected cells
Description: (§1) Procedure: A stable HeLa cell line expressing HiBiT-BRM was generated. On day 0, 5000 cells were seeded in 40 μL of media into each well of 384-well cell culture plates. […] Subsequently plates were incubated for 24 h in a standard tissue culture incubator and equilibrated at room temperature for 15 minutes. Nano-Glo HiBiT Lytic Detection System (Promega N3050) reagent was freshly prepared and 20 ul was added to each well. Upon addition of this LgBit-containing reagent, the HiBiT and LgBiT proteins associate to form the luminescent NanoBiT luciferase. The plates were shaken for 10 minutes at room temperature and the bioluminescence read using an EnVision plate reader (PerkinElmer).
(§2) The degradation % was calculated using the following formula: % degradation=100%−100%×(LumSample−LumLC)/(LumHC−LumLC). DMSO treated cells are employed as High Control (HC) and 2 μM of a known BRM/BRG1 degrader standard treated cells are employed as Low Control (LC).

[2] = biological target: T2, HiBit-BRG1 (Homo sapiens, UniProt P51532); experiment: HiBit-BRG1 cell-based degradation assay (Nano-Glo HiBiT Lytic Detection); details: HeLa cells expressing HiBit-BRG1 and LgBit, 24 h; for DC50: read-out: BRG1 HiBit Degradation IC50; for Dmax: read-out: BRG1 HiBit Degradation Maximum (%)
T2 construct: expressed in transfected cells
Description: as §1
For measurement of BRG1 degradation, a stable HeLa cell line expressing HiBit-BRG1 and LgBit was generated. The same protocol as above was then followed.
as §2

T2 sequence (P51532 whole entry): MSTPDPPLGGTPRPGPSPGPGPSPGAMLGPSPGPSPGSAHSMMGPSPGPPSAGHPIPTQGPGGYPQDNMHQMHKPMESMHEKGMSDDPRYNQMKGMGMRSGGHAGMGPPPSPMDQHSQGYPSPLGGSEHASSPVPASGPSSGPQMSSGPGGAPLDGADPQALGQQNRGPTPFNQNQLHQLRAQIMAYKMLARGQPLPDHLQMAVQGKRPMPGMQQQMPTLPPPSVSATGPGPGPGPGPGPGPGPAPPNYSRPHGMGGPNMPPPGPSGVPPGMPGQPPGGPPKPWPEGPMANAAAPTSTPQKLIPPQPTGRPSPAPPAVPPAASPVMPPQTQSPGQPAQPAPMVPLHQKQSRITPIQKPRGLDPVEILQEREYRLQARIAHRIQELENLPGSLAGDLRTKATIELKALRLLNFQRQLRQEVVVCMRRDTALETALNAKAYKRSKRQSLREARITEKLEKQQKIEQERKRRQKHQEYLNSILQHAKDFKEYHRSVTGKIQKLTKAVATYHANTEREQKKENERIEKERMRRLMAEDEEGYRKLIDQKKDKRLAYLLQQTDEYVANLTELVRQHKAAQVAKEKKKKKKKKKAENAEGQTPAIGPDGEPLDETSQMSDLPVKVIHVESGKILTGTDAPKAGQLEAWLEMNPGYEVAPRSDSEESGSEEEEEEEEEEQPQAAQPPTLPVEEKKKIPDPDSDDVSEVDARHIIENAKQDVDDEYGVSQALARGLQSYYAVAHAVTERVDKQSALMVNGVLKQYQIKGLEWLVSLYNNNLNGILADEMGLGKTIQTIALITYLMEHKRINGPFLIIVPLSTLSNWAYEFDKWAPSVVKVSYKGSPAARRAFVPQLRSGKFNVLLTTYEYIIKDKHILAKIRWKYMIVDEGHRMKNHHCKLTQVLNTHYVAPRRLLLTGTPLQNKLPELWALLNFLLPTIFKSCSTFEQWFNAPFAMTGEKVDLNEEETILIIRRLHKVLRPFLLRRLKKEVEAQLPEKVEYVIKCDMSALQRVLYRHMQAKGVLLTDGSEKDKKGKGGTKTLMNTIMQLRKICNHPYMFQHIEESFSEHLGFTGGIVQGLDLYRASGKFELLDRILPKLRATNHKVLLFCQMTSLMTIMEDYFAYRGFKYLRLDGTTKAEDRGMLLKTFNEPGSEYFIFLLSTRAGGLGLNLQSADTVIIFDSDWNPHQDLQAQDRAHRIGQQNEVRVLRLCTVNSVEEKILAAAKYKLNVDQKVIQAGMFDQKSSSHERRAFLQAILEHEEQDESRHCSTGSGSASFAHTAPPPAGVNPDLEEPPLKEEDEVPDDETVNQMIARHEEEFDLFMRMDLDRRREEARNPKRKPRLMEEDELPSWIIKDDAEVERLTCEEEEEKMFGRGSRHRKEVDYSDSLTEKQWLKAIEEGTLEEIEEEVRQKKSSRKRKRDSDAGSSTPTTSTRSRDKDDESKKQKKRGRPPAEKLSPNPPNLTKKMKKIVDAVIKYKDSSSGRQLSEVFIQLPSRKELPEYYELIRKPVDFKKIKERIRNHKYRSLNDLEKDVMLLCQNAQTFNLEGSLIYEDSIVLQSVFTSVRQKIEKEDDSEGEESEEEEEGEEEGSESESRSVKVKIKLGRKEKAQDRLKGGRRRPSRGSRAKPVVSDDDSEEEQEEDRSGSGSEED
T1 sequence (P51531 whole entry): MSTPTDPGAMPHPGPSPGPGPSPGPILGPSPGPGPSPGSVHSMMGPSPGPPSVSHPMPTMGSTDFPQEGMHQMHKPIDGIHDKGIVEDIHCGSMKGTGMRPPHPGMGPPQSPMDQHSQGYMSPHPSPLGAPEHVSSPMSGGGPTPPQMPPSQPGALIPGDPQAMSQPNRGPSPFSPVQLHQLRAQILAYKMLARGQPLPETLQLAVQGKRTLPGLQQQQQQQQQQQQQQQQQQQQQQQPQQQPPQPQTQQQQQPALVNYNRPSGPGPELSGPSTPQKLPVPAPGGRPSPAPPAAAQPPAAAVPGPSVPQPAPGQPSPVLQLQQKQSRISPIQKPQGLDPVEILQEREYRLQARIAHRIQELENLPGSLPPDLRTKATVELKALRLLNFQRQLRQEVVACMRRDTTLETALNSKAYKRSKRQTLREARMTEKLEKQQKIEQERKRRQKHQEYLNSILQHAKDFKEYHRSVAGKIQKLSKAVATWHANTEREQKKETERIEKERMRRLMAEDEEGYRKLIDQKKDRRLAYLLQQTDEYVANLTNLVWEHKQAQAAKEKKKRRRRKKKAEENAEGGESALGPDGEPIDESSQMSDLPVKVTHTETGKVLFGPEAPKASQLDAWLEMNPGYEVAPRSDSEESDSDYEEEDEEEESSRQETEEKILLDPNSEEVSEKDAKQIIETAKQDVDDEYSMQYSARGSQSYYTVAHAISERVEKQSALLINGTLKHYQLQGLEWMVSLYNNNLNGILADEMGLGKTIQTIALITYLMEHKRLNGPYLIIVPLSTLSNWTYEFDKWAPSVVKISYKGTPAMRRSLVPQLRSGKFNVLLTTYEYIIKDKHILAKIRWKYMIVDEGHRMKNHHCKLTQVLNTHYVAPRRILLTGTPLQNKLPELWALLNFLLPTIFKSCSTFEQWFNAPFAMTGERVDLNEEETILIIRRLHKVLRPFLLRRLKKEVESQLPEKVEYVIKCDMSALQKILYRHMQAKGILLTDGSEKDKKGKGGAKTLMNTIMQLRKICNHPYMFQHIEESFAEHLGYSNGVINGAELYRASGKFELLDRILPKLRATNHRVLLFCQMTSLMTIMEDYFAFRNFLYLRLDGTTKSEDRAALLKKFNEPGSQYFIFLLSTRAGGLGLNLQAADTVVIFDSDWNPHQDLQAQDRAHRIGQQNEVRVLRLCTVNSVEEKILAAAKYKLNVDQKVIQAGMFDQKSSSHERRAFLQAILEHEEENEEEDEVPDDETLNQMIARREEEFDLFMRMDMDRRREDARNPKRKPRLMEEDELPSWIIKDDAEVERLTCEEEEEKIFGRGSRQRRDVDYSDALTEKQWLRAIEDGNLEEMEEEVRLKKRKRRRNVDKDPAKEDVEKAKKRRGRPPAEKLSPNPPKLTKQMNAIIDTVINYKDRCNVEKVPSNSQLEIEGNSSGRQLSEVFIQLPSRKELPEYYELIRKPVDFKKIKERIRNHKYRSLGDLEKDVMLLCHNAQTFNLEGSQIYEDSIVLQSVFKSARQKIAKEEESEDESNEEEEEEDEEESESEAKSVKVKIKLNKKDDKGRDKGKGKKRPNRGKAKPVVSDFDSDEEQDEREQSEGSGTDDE

With `Nc1nnc(-c2ccccc2O)cc1OCCc1ccc(C(=O)NCCCCCOc2cccc3c2C(=O)N(C2CCC(=O)NC2=O)C3=O)cc1` (stereo not shown) [Compound 21, 4-(2-[[3-amino-6-(2-hydroxyphenyl)pyridazin-4-yl]oxy]ethyl)-N-(5-[[2-(2,6-dioxopiperidin-3-yl)-1,3-dioxoisoindol-4-yl]oxy]pentyl)benzamide] the “BRM HiBit Degradation Maximum (%)” value [1] was “B (“B” indicates maximum degradation ≥50%)”, the DC50 [1] was > 100 nM and the DC50 [2] was > 1000 nM. The Dmax [2] was < 50%.

For `Nc1nnc(-c2ccccc2O)cc1OCCc1ccc(C(=O)NCCCCCCCCCCCC(=O)NCc2ccc(S(=O)(=O)Nc3cccc4c(Cl)c[nH]c34)cc2)cc1` [Compound 22, 12-[[4-(2-[[3-amino-6-(2-hydroxyphenyl)pyridazin-4-yl]oxy]ethyl)phenyl]formamido]-N-([4-[(3-chloro-1H-indol-7-yl)sulfamoyl]phenyl]methyl)dodecanamide], the “BRM HiBit Degradation Maximum (%)” value [1] was “C (“C” indicates maximum degradation <50%)”, the DC50 [1] was > 1000 nM and the DC50 [2] was > 1000 nM. For the same molecule, the Dmax [2] was < 50%.

For `Nc1nnc(-c2ccccc2O)cc1OCCc1ccc(C(=O)NCCCCCCCCC(=O)NCc2ccc(S(=O)(=O)Nc3cccc4c(Cl)c[nH]c34)cc2)cc1` [Compound 23, 9-[[4-(2-[[3-amino-6-(2-hydroxyphenyl)pyridazin-4-yl]oxy]ethyl)phenyl]formamido]-N-([4-[(3-chloro-1H-indol-7-yl)sulfamoyl]phenyl]methyl)nonanamide], the “BRM HiBit Degradation Maximum (%)” value [1] was “C (“C” indicates maximum degradation <50%)”, the DC50 [1] was > 1000 nM and the DC50 [2] was > 1000 nM. The Dmax [2] was < 50%.

With `Cc1ncsc1-c1ccc(CNC(=O)[C@@H]2C[C@@H](O)CN2C(=O)[C@@H](NC(=O)CCCOCCOCCNC(=O)c2ccc(CCOc3cc(-c4ccccc4O)nnc3N)cc2)C(C)(C)C)cc1` [Compound 24, (2S,4R)-1-[(2S)-2-[4-[2-(2-[[4-(2-[[3-amino-6-(2-hydroxyphenyl)pyridazin-4-yl]oxy]ethyl)phenyl]formamido]ethoxy)ethoxy]butanamido]-3,3-dimethylbutanoyl]-4-hydroxy-N-[[4-(4-methyl-1,3-thiazol-5-yl)phenyl]methyl]pyrrolidine-2-carboxamide] the “BRM HiBit Degradation Maximum (%)” value [1] was “C (“C” indicates maximum degradation <50%)”, the DC50 [1] was > 1000 nM and the DC50 [2] was > 1000 nM. The Dmax [2] was < 50%.

In the case of `Nc1nnc(-c2ccccc2O)cc1OCCc1ccc(C(=O)NCCCCCCCC(=O)NCc2ccc(S(=O)(=O)Nc3cccc4c(Cl)c[nH]c34)cc2)cc1` [Compound 25, 8-[[4-(2-[[3-amino-6-(2-hydroxyphenyl)pyridazin-4-yl]oxy]ethyl)phenyl]formamido]-N-([4-[(3-chloro-1H-indol-7-yl)sulfamoyl]phenyl]methyl)octanamide], the “BRM HiBit Degradation Maximum (%)” value [1] is reported as “C (“C” indicates maximum degradation <50%)”, the DC50 [1] is reported as > 1000 nM and the DC50 [2] is reported as > 1000 nM. The Dmax [2] was < 50%.

`Cc1ncsc1-c1ccc(CNC(=O)[C@@H]2C[C@@H](O)CN2C(=O)[C@@H](NC(=O)CCCCCCCCCNCc2ccc(CCOc3cc(-c4ccccc4O)nnc3N)cc2)C(C)(C)C)cc1` [Compound 26, (2S,4R)-1-((S)-2-(10-((4-(2-((3-amino-6-(2-hydroxyphenyl)pyridazin-4-yl)oxy)ethyl)benzyl)amino)decanamido)-3,3-dimethylbutanoyl)-4-hydroxy-N-(4-(4-methylthiazol-5-yl)benzyl)pyrrolidine-2-carboxamide] was tested, and the “BRM HiBit Degradation Maximum (%)” value [1] was “A (“A” indicates maximum degradation ≥75%)”, the DC50 [1] was > 100 nM and the DC50 [2] was > 1000 nM. For the same molecule, the Dmax [2] was < 50%.

With `Cc1ncsc1-c1ccc(CNC(=O)[C@@H]2C[C@@H](O)CN2C(=O)[C@@H](NC(=O)CCCCC(=O)NCc2ccc(CCOc3cc(-c4ccccc4O)nnc3N)cc2)C(C)(C)C)cc1` [Compound 27, N′-[[4-(2-[[3-amino-6-(2-hydroxyphenyl)pyridazin-4-yl]oxy]ethyl)phenyl]methyl]-N-[(2S)-1-[(2S,4R)-4-hydroxy-2-([[4-(4-methyl-1,3-thiazol-5-yl)phenyl]methyl]carbamoyl)pyrrolidin-1-yl]-3,3-dimethyl-1-oxobutan-2-yl]hexanediamide] the “BRM HiBit Degradation Maximum (%)” value [1] was “A (“A” indicates maximum degradation ≥75%)”, the DC50 [1] was > 1000 nM and the DC50 [2] was > 1000 nM. For the same molecule, the Dmax [2] was < 50%.

In the case of `Cc1ncsc1-c1ccc(CNC(=O)[C@@H]2C[C@@H](O)CN2C(=O)[C@@H](NC(=O)CCCCCCCCCC(=O)NCc2ccc(CCOc3cc(-c4ccccc4O)nnc3N)cc2)C(C)(C)C)cc1` [Compound 28, N′-[[4-(2-[[3-amino-6-(2-hydroxyphenyl)pyridazin-4-yl]oxy]ethyl)phenyl]methyl]-N-[(2S)-1-[(2S,4R)-4-hydroxy-2-([[4-(4-methyl-1,3-thiazol-5-yl)phenyl]methyl]carbamoyl)pyrrolidin-1-yl]-3,3-dimethyl-1-oxobutan-2-yl]undecanediamide], the “BRM HiBit Degradation Maximum (%)” value [1] is reported as “A (“A” indicates maximum degradation ≥75%)”, the DC50 [1] is reported as > 100 nM and the DC50 [2] is reported as > 1000 nM. For the same molecule, the Dmax [2] was < 50%.

With `Cc1ncsc1-c1ccc(CNC(=O)[C@@H]2C[C@@H](O)CN2C(=O)[C@@H](NC(=O)CCC(=O)NCc2ccc(CCOc3cc(-c4ccccc4O)nnc3N)cc2)C(C)(C)C)cc1` [Compound 29, N′-[[4-(2-[[3-amino-6-(2-hydroxyphenyl)pyridazin-4-yl]oxy]ethyl)phenyl]methyl]-N-[(2S)-1-[(2S,4R)-4-hydroxy-2-([[4-(4-methyl-1,3-thiazol-5-yl)phenyl]methyl]carbamoyl)pyrrolidin-1-yl]-3,3-dimethyl-1-oxobutan-2-yl]succinamide] the “BRM HiBit Degradation Maximum (%)” value [1] was “B (“B” indicates maximum degradation ≥50%)”, the DC50 [1] was > 1000 nM and the DC50 [2] was > 1000 nM. For the same molecule, the Dmax [2] was < 50%.

With `Cc1ncsc1-c1ccc(CNC(=O)[C@@H]2C[C@@H](O)CN2C(=O)[C@@H](NC(=O)CCCCCCC(=O)NCc2ccc(CCOc3cc(-c4ccccc4O)nnc3N)cc2)C(C)(C)C)cc1` [Compound 30] the “BRM HiBit Degradation Maximum (%)” value [1] was “A (“A” indicates maximum degradation ≥75%)”, the DC50 [1] was > 100 nM and the DC50 [2] was > 1000 nM. The Dmax [2] was < 50%.

For `Cc1ncsc1-c1ccc(CNC(=O)[C@@H]2C[C@@H](O)CN2C(=O)[C@@H](NC(=O)CCCCCCCCCCCC(=O)NCc2ccc(CCOc3cc(-c4ccccc4O)nnc3N)cc2)C(C)(C)C)cc1` [Compound 31, N1-(4-(2-((3-amino-6-(2-hydroxyphenyl)pyridazin-4-yl)oxy)ethyl)benzyl)-N13-((S)-1-((2S,4R)-4-hydroxy-2-((4-(4-methylthiazol-5-yl)benzyl)carbamoyl)pyrrolidin-1-yl)-3,3-dimethyl-1-oxobutan-2-yl)tridecanediamide], the “BRM HiBit Degradation Maximum (%)” value [1] was “B (“B” indicates maximum degradation ≥50%)”, the DC50 [1] was > 10 nM and the DC50 [2] was > 1000 nM. The Dmax [2] was < 50%.

`Cc1ncsc1-c1ccc(CNC(=O)[C@@H]2C[C@@H](O)CN2C(=O)[C@@H](NC(=O)CCCCCCCCCCCCCCCC(=O)NCc2ccc(CCOc3cc(-c4ccccc4O)nnc3N)cc2)C(C)(C)C)cc1` [Compound 32, N1-(4-(2-((3-amino-6-(2-hydroxyphenyl)pyridazin-4-yl)oxy)ethyl)benzyl)-N17-((S)-1-((2S,4R)-4-hydroxy-2-((4-(4-methylthiazol-5-yl)benzyl)carbamoyl)pyrrolidin-1-yl)-3,3-dimethyl-1-oxobutan-2-yl)heptadecanediamide] was tested, and the “BRM HiBit Degradation Maximum (%)” value [1] was “A (“A” indicates maximum degradation ≥75%)”, the DC50 [1] was > 10 nM and the DC50 [2] was > 1000 nM. For the same molecule, the Dmax [2] was < 50%.

For `Cc1ncsc1-c1ccc(CNC(=O)[C@@H]2C[C@@H](O)CN2C(=O)[C@@H](NC(=O)CCCCCCCC(=O)NCc2ccc(CCOc3cc(-c4ccccc4O)nnc3N)cc2)C(C)(C)C)cc1` [Compound 33], the “BRM HiBit Degradation Maximum (%)” value [1] was “A (“A” indicates maximum degradation ≥75%)”, the DC50 [1] was > 100 nM and the DC50 [2] was > 100 nM. For the same molecule, the Dmax [2] was > 50%.

With `Cc1ncsc1-c1ccc(CNC(=O)[C@@H]2C[C@@H](O)CN2C(=O)[C@@H](NC(=O)CCCC(=O)NCc2ccc(CCOc3cc(-c4ccccc4O)nnc3N)cc2)C(C)(C)C)cc1` [Compound 34] the “BRM HiBit Degradation Maximum (%)” value [1] was “B (“B” indicates maximum degradation ≥50%)”, the DC50 [1] was > 1000 nM and the DC50 [2] was > 1000 nM. For the same molecule, the Dmax [2] was < 50%.

For `Cc1ncsc1-c1ccc(CNC(=O)[C@@H]2C[C@@H](O)CN2C(=O)[C@@H](NC(=O)CCCCCCCCCCCCCC(=O)NCc2ccc(CCOc3cc(-c4ccccc4O)nnc3N)cc2)C(C)(C)C)cc1` [Compound 35, N1-(4-(2-((3-amino-6-(2-hydroxyphenyl)pyridazin-4-yl)oxy)ethyl)benzyl)-N15-((S)-1-((2S,4R)-4-hydroxy-2-((4-(4-methylthiazol-5-yl)benzyl)carbamoyl)pyrrolidin-1-yl)-3,3-dimethyl-1-oxobutan-2-yl)pentadecanediamide], the “BRM HiBit Degradation Maximum (%)” value [1] was “A (“A” indicates maximum degradation ≥75%)”, the DC50 [1] was > 10 nM and the DC50 [2] was > 1000 nM. For the same molecule, the Dmax [2] was < 50%.

`Cc1ncsc1-c1ccc(CNC(=O)[C@@H]2C[C@@H](O)CN2C(=O)[C@@H](NC(=O)CCCCCCCCCCCCC(=O)NCc2ccc(CCOc3cc(-c4ccccc4O)nnc3N)cc2)C(C)(C)C)cc1` [Compound 36] was tested, and the “BRM HiBit Degradation Maximum (%)” value [1] was “B (“B” indicates maximum degradation ≥50%)”, the DC50 [1] was > 10 nM and the DC50 [2] was > 1000 nM. For the same molecule, the Dmax [2] was < 50%.
